# Results as given in the METLIN SMRT retention time set (Domingo-Almenara et al. 2019).
# Experiment: gradient 5% acetonitrile 3 min, to 50% in 2 min, to 85% in 15 min, held 3 min, 100 µL/min
# Conditions: column: Zorbax Extend-C18 2.1 x 50 mm; eluents: water / acetonitrile, 0.1% formic acid
# In short: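 Pure standards were analyzed in mixtures of ~100 molecules using HPLC coupled to a quadrupole time-of-flight mass spectrometer, in both positive and negative ionization mode. Separation used a Zorbax Extend-C18 column (2.1 × 50 mm, 1.8 μm) at 100 μL/min, with water and acetonitrile each containing 0.1% formic acid. Dead and dwell volumes were 40 μL and 900 μL, and data were collected over 3 months. Retention time was read from computationally picked adduct peaks, each inspected manually.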
row,RP-LC retention time,SMILES
1,806 s,CCOC(=O)c1nc(Nc2ccc(OCC)cc2)c2ccccc2n1
2,718 s,CCN(c1ccccc1)S(=O)(=O)c1cc(-c2[nH]ncc2C(=O)N2CCOCC2)oc1C
3,593 s,CC(C)NC(=O)CN1CCN(c2ncc(C(=O)NCc3ccccc3)c(N)n2)CC1
4,758 s,CN1C(=O)c2cccnc2Sc2cc(NC(=O)c3ccccc3F)ccc21
5,614 s,Cc1nn(C(C)C(=O)NCCCN2CCCC2)c(=O)c2nn(-c3ccccc3)c(C)c12 (stereo not drawn)
6,631 s,CN(CCCNC(=O)Cn1c(=O)c2cccn2c2ccccc21)Cc1ccccc1
7,871 s,C#CCOCC1CCCN(S(=O)(=O)c2cc(F)ccc2OC)C1 (stereo not drawn)
8,1240 s,CCCN(C(C)=O)c1nc(-c2ccc(Br)cc2)cs1
9,931 s,Cc1ccccc1-n1ccn(Cc2nc(-c3cccc(Br)c3)no2)c(=O)c1=O
10,707 s,C/C(=C\c1csc(C)n1)[C@@H]1C[C@@H]2O[C@]2(C)CCC[C@H](C)[C@H](O)[C@@H](C)C(=O)C(C)(C)[C@@H](O)CC(=O)N1
11,650 s,CC(C)CCN(C1CCOCC1)C1CCN(C(=O)Nc2cccc(F)c2)CC1
12,777 s,CC(C)CCNC(=O)CCSC1CCc2ccccc2NC1=O (stereo not drawn)
13,1420 s,CCCN(C(=O)Cc1ccc(OC)cc1)c1nc(-c2ccccc2)cs1
14,695 s,C/C=C/c1cc2c(c(=O)o1)C(=O)[C@@H](O)[C@H](C)O2
15,592 s,O=C(Nc1nc(-c2cccnc2)cs1)C1CN(c2nc3ccccc3s2)C1
16,734 s,COc1ccc(C)cc1NC(=O)NCC(c1cccnc1)c1cn(C)c2ccccc12 (stereo not drawn)
17,739 s,CC(=O)Oc1cc2c(s1)CCN(C(C(=O)C1CC1)c1ccccc1F)C2 (stereo not drawn)
18,590 s,Cc1oc(-c2ccc(C(=O)NCCN(C)C)cc2)nc1CS(=O)c1ccccc1 (stereo not drawn)
19,948 s,Cc1cc(Cl)ccc1S(=O)(=O)N1C[C@@H](F)C[C@H]1C(=O)N1CCCCC1
20,697 s,COc1cccc(-c2nc(CN3CCCC3=O)no2)c1
21,621 s,O=C1CCCc2cc(S(=O)(=O)NCCN3CCN(c4ccccc4)CC3)ccc2N1
22,944 s,Cc1ccc(NC(=O)N2CCC(n3c(C(F)(F)F)nc4cccnc43)CC2)cc1F

row,RP-LC retention time,SMILES
1,596 s,Cc1cc(-c2nnc(-c3ccccc3)o2)c(C)n1CC(=O)Nc1ccc2c(c1)OCO2
2,752 s,O=C(NCCS(=O)(=O)N1CCc2ccccc2C1)c1ccc([N+](=O)[O-])o1
3,688 s,CCOCCCNC(=O)C1CCCN(c2nnc(C)c3c(C)n(-c4ccc(Cl)cc4)nc23)C1 (stereo not drawn)
4,717 s,O=C(NCc1ccccc1)N1CCN(Cc2nc3cc(Cl)ccc3o2)CC1
5,680 s,Cc1nc2ccccc2nc1N1CCCC1
6,582 s,O=C(NCc1cccnc1)c1ccc(-c2ccc(N3CCSCC3)nc2)cc1
7,810 s,Cc1cc(NC(=O)CSc2nc3ccccc3s2)no1
8,1160 s,Cc1cc(C)c2c(-n3cccc3)nn(CC(=O)Nc3ccc(C(C)C)cc3)c2n1
9,829 s,Cc1ccc(N2CCC(NC(=O)Cc3cccc(F)c3)C2=O)cc1 (stereo not drawn)
10,650 s,O=c1[nH]cc(S(=O)(=O)N2CCCCCC2)c(=O)[nH]1
11,740 s,O=C(c1ccc2c(c1)OCO2)N1CCC(c2nc(C3CC3)no2)C1 (stereo not drawn)
12,749 s,CCc1ccc(-c2cc(C(F)(F)F)on2)cc1S(=O)(=O)N1CCCCC1CC (stereo not drawn)
13,578 s,CCC(=O)N1CCc2cc(N3CC(C(=O)NCc4ccncc4)CC3=O)ccc21 (stereo not drawn)
14,891 s,CCCN1C(=O)c2c(C(=O)NCCc3ccccc3)ncn2CC1(C)C(=O)NCCC(C)C (stereo not drawn)
15,1160 s,c1ccc(-c2nnc(-c3cccnc3NCc3ccc4c(c3)OCO4)o2)cc1
16,917 s,Cc1nc(N2CCOCC2)c2c(C(=O)N3CCN(c4cccc(Cl)c4)CC3)c(C)oc2n1
17,834 s,CCOC(=O)C(=O)Nc1ccc(C(F)(F)F)cc1
18,722 s,COc1cc2c(c(OC)c1OC)-c1ccc(OC)c(=O)cc1[C@@H](NC(=O)c1ccccc1)CC2
19,946 s,CCCc1cc(C2CCCN2C(=O)Nc2ccc(C)cc2)no1 (stereo not drawn)
20,834 s,COc1ccccc1OCCNC(=O)c1ccc2c(=O)n(-c3ccccc3)c(N3CCCC3)nc2c1
21,755 s,Cn1nccc1C(=O)N1CCC(c2noc(-c3ccccc3)n2)C1 (stereo not drawn)
22,576 s,COc1cc(CC(=O)N2CCN(c3cc(C)n4c(C)nnc4n3)CC2)cc(OC)c1

row,RP-LC retention time,SMILES
1,763 s,Cc1cccc(CNC(=O)C2CCN(S(=O)(=O)c3cc(C(=O)N4CCOCC4)cs3)CC2)c1
2,1420 s,Cc1csc(-c2cc(S(=O)(=O)NCCCN3CCCc4ccccc43)c(C)s2)n1
3,1040 s,COc1ccc(-c2nnc(Cc3nc(-c4ccc(OC)c(F)c4)no3)o2)cc1
4,750 s,CSc1ccc(CNC(=O)C2CCCN(c3ncnc4nn(-c5ccc(C)cc5)cc34)C2)cc1 (stereo not drawn)
5,852 s,COc1ccc(-c2nc(NC(=O)CSc3ccccc3)sc2CCC(=O)O)cc1
6,670 s,CCCC(NC(=O)c1ccc2c(c1)OCO2)C(=O)Nc1nc2ccccc2[nH]1 (stereo not drawn)
7,792 s,Cc1cc(-c2nnc(C3CC3)o2)c(C)n1CC(=O)Nc1ccc(F)cc1
8,817 s,CC(C)Cn1cc(CCNC(=O)C2CCCCC2)c2cccnc21
9,920 s,Cc1oc(-c2ccccc2)nc1Cc1noc(-c2ccncc2)n1
10,973 s,CCn1nccc1-c1cccc(-c2noc(C(NC(=O)c3ccco3)C(C)C)n2)c1 (stereo not drawn)
11,826 s,COc1ccc2c(C)c(C(=O)Nc3cc(C)ns3)oc2c1
12,923 s,CCCN1C(=O)c2c(C(=O)NCc3ccc(OC(C)C)cc3)ncn2CC1(C)C(=O)NC1CCCC1 (stereo not drawn)
13,747 s,Cc1cc(N2CCN(C(=O)Nc3ccc(C)c(Cl)c3)CC2)nc(N2CCCC2)n1
14,832 s,CCn1ccc2cc(S(=O)(=O)N3CCCN(C(=O)NCc4ccco4)CC3)ccc21
15,599 s,O=C(NCC1(CO)CC1)c1ccccc1F
16,620 s,Cc1cccc(-n2nnc(C(=O)O)c2-c2ccncc2)c1
17,840 s,Cc1ccc2c(Nc3ccc(S(N)(=O)=O)cc3)c(C(=O)OC(C)C)cnc2n1
18,634 s,Cc1cc(C)n(Cc2ccc(C(=O)NCC3Cn4cccc4C(=O)N3C)o2)n1 (stereo not drawn)
19,754 s,OC(c1cc(C(F)(F)F)nc2c(C(F)(F)F)cccc12)C1CCCCN1 (stereo not drawn)
20,625 s,COCCN1CCC(N2CCN(S(=O)(=O)c3ccc(C(F)(F)F)cc3)CC2)C1=O (stereo not drawn)
21,1140 s,CCOc1cc(C(=O)Nc2nc(-c3ccc4c(c3)N(C)C(=O)CO4)cs2)cc(OCC)c1OCC
22,695 s,Cc1ccc(NS(=O)(=O)c2cc(-c3[nH]ncc3C(=O)N3CCOCC3)oc2C)cc1F

row,RP-LC retention time,SMILES
1,777 s,Cn1nc(-c2nc(Cc3ccccc3)no2)c2c1CCN(C(=O)C1CCOC1)C2 (stereo not drawn)
2,932 s,COc1ccc(CNC(=O)C2(C)CCCN(S(=O)(=O)c3ccccc3Cl)C2)cc1 (stereo not drawn)
3,685 s,O=C(NC1CC1)c1ccccc1OCC1CCN(C(=O)C2CCCO2)CC1 (stereo not drawn)
4,952 s,COc1cc(NC(=O)c2cnc3c(c2)c(=O)n(C)c(=O)n3-c2ccc(C)cc2)cc(OC)c1
5,1020 s,Cn1cc2c(n1)c(=O)n(Cc1ccc(F)cc1)c1nn(Cc3ccccc3F)c(=O)n21
6,596 s,CNC(=O)c1cc(C)nc2ccc(C(C)C)cc12
7,821 s,COC(=O)C(C)NC(=O)NCc1cccn1Cc1ccccc1C (stereo not drawn)
8,840 s,COC(=O)c1ccc(CSc2nnc(C(C)C)c3cnn(-c4ccc(F)cc4)c23)o1
9,681 s,CC(=O)c1ccc(NC(=O)N2C[C@@H]3C[C@H]2C[C@@H]3NC(=O)c2ccccc2)cc1
10,876 s,CC(=O)N1c2ccc(S(=O)(=O)N3CCCC3)cc2CC1C(=O)Nc1c(C)cc(C)cc1C (stereo not drawn)
11,788 s,CCCCNC(=O)C1CCN(c2nc3ccc(-c4cncnc4)nc3s2)CC1
12,664 s,CC(C)(CO)NC(=O)Cc1ccc(NS(=O)(=O)c2ccccc2Br)cc1
13,629 s,COc1cc(C2CC(=O)c3c(C)nc(N4CCN(C)CC4)nc3C2)cc(OC)c1OC (stereo not drawn)
14,956 s,O=C(c1ccc2c(c1)OCO2)N1CCC2(CC1)N=C(c1ccc(Cl)cc1)NO2
15,746 s,COc1ncccc1CNC(=O)c1sccc1C
16,844 s,CCc1cccc(NC(=O)Cn2c(=O)c3cc(C4CC4)nn3c3ncccc32)c1
17,741 s,O=C(c1ccsc1)N1CCCN(c2cc(-c3ccccc3)[nH]n2)CC1
18,949 s,CC(C)(C)NC(=O)c1cc2c(n(-c3ccc(C(F)(F)F)cc3)c1=O)CCCC2=O
19,973 s,CCOc1cc(CNC(=O)c2ccc3c(c2)N(C)C(=O)c2ccccc2O3)cc(OCC)c1OCC
20,1070 s,Cc1cc(F)ccc1N1C(=O)CN(S(C)(=O)=O)CC1(C)C(=O)NC1CCCCCCC1 (stereo not drawn)

row,SMILES,RP-LC retention time
1,O=C(COc1ccccc1F)N1CCN(Cc2csc(-c3ccccc3)n2)CC1,606 s
2,Cc1ncc2c(n1)C[C@@H]1CC[C@H]2N1C(=O)Nc1ccc(C)c(C)c1,707 s
